Measurements as given in patent publication US8119589B2, “Modulation of CD4+ T cell responses by a tick saliva protein, Salp15 and polypeptides derived therefrom” (University of North Carolina at Charlotte, priority 2004, dated 2012).

Experiments:
R-EAE in SJL/J mice = assay: Relapsing-EAE model in PLP139-151 immunized SJL mice; assay type: in vivo, mouse
Method: SJL/J mice in groups of 18 are injected i.p. with 200 μg of PLP peptide 139-151 (HSLGKWLGHPDKF; SEQ ID NO: 15) (Research Genetics, Huntsville, Ala., U.S.A.). Please note that the original Cysteine has been substituted by serine for stability purposes. […] One group of mice receives daily injections of 50 μg of recombinant Salp15 produced in a Drosophila expression system, starting day 10 after immunization. This regime permits an efficient in vivo activation of PLP139-151-specific CD4^+ T cell activation. Since Salp15 has no effect on effector CD4^+ T cells (Anguita et al., 2002.), its function is expected to be circumscribed to the activation of neoreactive CD4^+ T cells. […]
At days 12 (including the 3 control mice treated with Salp15 over the course of the immunization), 14, 17, 20, 30 and 60 post-infection, 3 mice from each group are sacrificed and analyzed as follows: splenic CD4^+ T cells are purified by negative selection using biotinylated antibodies against CD8a, Ly6G, Mac-I, B220, class II (I-A^k and I-E^k) and panNK molecules (BD Biosciences Pharmingen, San Jose, Calif., U.S.A.), followed by incubation with Avidin bound to magnetic microbeads and passage through a magnetic column (Miltenyi Biotec, Auburn, Calif., U.S.A.). […]
Peripheral responses to relapsing epitopes are assessed by the analysis of delayed type hypersensitivity (DTH). […]

CD4+ T cells = assay: INFγ-mediated STAT1 phosphorylation in CD4+ T cells; assay type: cell-based, mouse; details: 20 ng/mL INFγ; Salp15 50 μg/mL
Method: For tyrosine phosphorylation western analysis, cells were lysed in 60 mM Tris (pH 7.4) containing 150 mM NaCl, 5 mM EDTA, 1 mM EGTA, 1 mM β-glycerol phosphate, 2.5 mM sodium pyrophosphate, 25 mM NaF, 2 mM sodium orthovanadate, 1% Triton-X 100, 0.25% sodium deoxycholate, 1 mM PMSF and protease inhibitors for 15 min on ice, sonicated 4×5 sec and incubated at 37° C. for 10 min. The lysate was cleared by centrifugation and boiled in SDS-sample buffer. The samples were subjected to SDS-PAGE, transferred to a nitrocellulose membrane and immunoblotted with anti-pTyr, anti-pPLCγ1 and anti-Vav1, anti-pSrc family (Tyr^416) to measure p-Lck^394 (Alonso et al., 2004), anti-Lck, anti-pZap70 (Tyr^319), anti-Zap70, p44/42 and p44/42 (phopho-Tyr^204/Thr^202). Vav1 was immunoprecipitated using anti-Vav1 and protein A-agarose beads overnight, subjected to SDS-PAGE followed by immunoblotting with anti-pTyr or anti-Vav1. To examine the effect of Salp15 on T cell stimulation with INFγ, CD4^+ T cells were preincubated with Salp15 at 50 μg/mL followed by activation with 20 ng/mL of mouse recombinant INFγ (R & D Systems, Minneapolis, Minn., U.S.A.) for 30 min at 37° C. The cells were lysed as above and subjected to SDS-PAGE and immunoblotting with anti-pSTAT1 and anti-STAT1.

Salp15: secreted salivary protein from Ixodes scapularis, SEQ ID NO: 2; recombinant His-tagged, produced in Drosophila S2 cells
Activation of CD4+ T cells in response to new epitopes (epitope spreading) (R-EAE in SJL/J mice; daily 50 μg Salp15 from day 10 after immunization): lowered activation | Degree of demyelination (R-EAE in SJL/J mice; histology of brains and spinal cords): lower degree of demyelination | INFγ-mediated phosphorylation of STAT1 (CD4+ T cells): unaffected
